Structures are written as SMILES. Like-named read-outs stand apart in the source and are kept apart here.

This is an account of results in US11331299B2, “Medicinal use of serrulatane diterpenes” (The University of Sydney, priority 2016, dated 2022).

For one data set, the target named is T1, CECR2 (h) bromodomain (Homo sapiens, UniProt Q9BXF3).
T1 construct: CECR2(h) bromodomain
The data set can be described thus: Epigenetic binding assay, Bromodomain. The following applies: 10 μM; read-out: % Inhibition of Control Specific Binding.

The next data set addresses T2, BAZ2B (h) bromodomain (Homo sapiens, UniProt Q9UIF8).
T2 construct: Bromodomain
T2 sequence (Q9UIF8 2060-2164 limits assumed): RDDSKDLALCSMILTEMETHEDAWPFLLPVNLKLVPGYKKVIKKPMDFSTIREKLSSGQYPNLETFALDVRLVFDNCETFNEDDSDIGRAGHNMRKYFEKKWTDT
The data set can be described thus: Epigenetic binding assay, Bromodomain. The following applies: read-out: % Inhibition of Control Specific Binding.

For a further data set, the target named is T3, BRDT(1) (h) bromodomain (Homo sapiens, UniProt Q58F21).
T3 construct: Bromodomain; Eurofins CEREP (France), contract laboratory
The data set can be described thus: Epigenetic binding assay, Bromodomain. As to conditions: read-out: % Inhibition of Control Specific Binding.

A further data set addresses T4, CBX2 (h) chromodomain (Homo sapiens, UniProt Q14781).
T4 construct: Recognition and specificity determinants of the human cbx chromodomains; Eurofins CEREP (France), contract laboratory
T4 sequence (Q14781 12-70 limits assumed): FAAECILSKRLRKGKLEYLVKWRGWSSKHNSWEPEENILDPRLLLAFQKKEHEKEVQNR
The data set can be described thus: Epigenetic binding assay, Chromodomain. The following applies: read-out: % Inhibition of Control Specific Binding.

The subject of another data set is L3MBTL1 MBT domain. The data set can be described thus: Epigenetic binding assay, MBT domain. As to conditions: 10 μM.
A further data set has as its system H3K9 ac. The data set can be described thus: Cell-based detection methyl modifications. As to conditions: read-out: % Inhibition of Control Values.
The next data set concerns H3K9 me2. The data set can be described thus: Cell-based detection methyl modifications. As to conditions: read-out: % Inhibition of Control Values.
The next data set has as its target JARID1A (h) (Homo sapiens, UniProt P29375). The data set can be described thus: Epigenetic enzyme assay, Demethylases (KDMs). It is filed as biochemical. The following applies: 10 μM; read-out: % Inhibition of Control Values.
Another data set addresses T5, JMJD2E (h) (Homo sapiens, UniProt B2RXH2).
T5 sequence (B2RXH2 1-506): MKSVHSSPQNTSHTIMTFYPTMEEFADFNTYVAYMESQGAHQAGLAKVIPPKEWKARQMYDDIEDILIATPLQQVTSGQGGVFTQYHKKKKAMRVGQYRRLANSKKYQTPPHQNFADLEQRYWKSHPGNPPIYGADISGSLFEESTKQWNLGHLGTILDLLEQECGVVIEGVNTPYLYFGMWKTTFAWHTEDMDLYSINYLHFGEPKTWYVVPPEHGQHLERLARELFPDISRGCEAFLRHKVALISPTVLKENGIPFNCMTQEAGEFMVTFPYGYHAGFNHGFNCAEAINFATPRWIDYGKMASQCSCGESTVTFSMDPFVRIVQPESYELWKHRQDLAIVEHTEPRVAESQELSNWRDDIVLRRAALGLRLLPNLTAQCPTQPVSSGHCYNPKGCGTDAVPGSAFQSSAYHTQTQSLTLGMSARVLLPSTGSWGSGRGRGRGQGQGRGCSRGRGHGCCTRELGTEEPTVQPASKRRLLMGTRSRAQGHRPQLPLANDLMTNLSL
The data set can be described thus: Epigenetic enzyme assay, Demethylases (KDMs). The following applies: 10 μM; read-out: % Inhibition of Control Values. The class given is biochemical.

The target in the next data set is DNMT3B/DNMT3L (h) (Homo sapiens, UniProt Q9UBC3). The data set can be described thus: Epigenetic enzyme assay, DNA methyltransferases (DNMTs). It is filed as biochemical. The following applies: 10 μM; read-out: % Inhibition of Control Values.
The target in another data set is HDAC2 (h) (Homo sapiens, UniProt Q92769). The data set can be described thus: Epigenetic enzyme assay, Histone deacetylase (HDACs). The class given is biochemical. As to conditions: read-out: % Inhibition of Control Values.
In another data set the target is HDAC5 (h) (Homo sapiens, UniProt Q9UQL6). Described as above. It is filed as biochemical. The following applies: read-out: % Inhibition of Control Values.
In the next data set the target is ASH1L (Homo sapiens, UniProt Q9NR48). The data set can be described thus: Epigenetic enzyme assay, Methyltransferases (MTs). It is filed as biochemical. As to conditions: 10 μM; read-out: % Inhibition of Control Values.
Another data set concerns the target T6, SETD7 (h) (Homo sapiens, UniProt Q8WTS6).
T6 sequence (Q8WTS6 1-366): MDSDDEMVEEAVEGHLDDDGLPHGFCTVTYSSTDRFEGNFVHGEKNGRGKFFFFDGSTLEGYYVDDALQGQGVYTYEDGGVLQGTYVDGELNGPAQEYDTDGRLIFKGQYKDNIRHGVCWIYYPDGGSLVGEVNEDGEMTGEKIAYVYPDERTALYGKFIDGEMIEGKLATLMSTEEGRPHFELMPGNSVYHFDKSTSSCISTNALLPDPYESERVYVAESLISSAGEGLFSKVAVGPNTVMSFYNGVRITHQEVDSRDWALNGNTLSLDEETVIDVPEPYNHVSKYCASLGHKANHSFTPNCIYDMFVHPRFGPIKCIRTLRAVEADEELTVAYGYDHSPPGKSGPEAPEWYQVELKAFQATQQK
The data set can be described thus: Epigenetic enzyme assay, Methyltransferases (MTs). As to conditions: 10 μM; read-out: % Inhibition of Control Values. The class given is biochemical.

The target of data set [1] is T7, Glycine N-methyltransferase (h) (Homo sapiens, UniProt Q14749).
T7 sequence (Q14749 1-295): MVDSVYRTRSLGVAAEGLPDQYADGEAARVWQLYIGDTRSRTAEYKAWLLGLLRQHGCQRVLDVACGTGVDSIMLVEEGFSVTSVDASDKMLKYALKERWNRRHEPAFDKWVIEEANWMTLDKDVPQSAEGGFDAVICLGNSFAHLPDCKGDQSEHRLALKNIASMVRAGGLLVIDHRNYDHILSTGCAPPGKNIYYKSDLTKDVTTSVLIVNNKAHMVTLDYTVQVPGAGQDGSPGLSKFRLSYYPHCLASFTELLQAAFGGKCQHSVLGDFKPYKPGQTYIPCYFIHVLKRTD
The data set can be described thus: Epigenetic enzyme assay, Small molecule methyltransferases. The class given is biochemical. As to conditions: read-out: % Inhibition of Control Values.

The next data set deals with USP 14 (h) (Homo sapiens, UniProt P54578). The data set can be described thus: Epigenetic enzyme assay, Ubiquitin modifying enzymes. It is filed as biochemical. The following applies: 10 μM; read-out: % Inhibition of Control Values.
In another data set the test system is Angiotensin, AT1/ACE. The data set can be described thus: Angiotensin, AT1/ACE, guinea pig ileum (isotonic). Also noted: species or system Dunkin Hartley Guinea pig. The following applies: 10 μM; assay year 2015. On the procedure:
The in vitro pharmacological studies were conducted by Eurofins PanLab (Taiwan) using the parameters shown in Table 13 with respect to appropriate literature references.

The next data set relates to Hs 852.T. The data set can be described thus: OncoPanel cell proliferation assay (10-day). It is filed as cell-based, human. The following applies: Homo sapiens, Skin (Melanoma).
A further data set addresses CYP3A (Homo sapiens, UniProt P08684). The data set can be described thus: Cytochrome P450 Inhibition (CYP panel). The class given is in vitro ADME. The following applies: probe testosterone; for inhibition at 1 µM: human liver microsomes. In general terms: Microsomes from liver hold many membrane-bound enzymes, among them those of drug oxidation.

Sequence of CYP3A (P08684 2-503): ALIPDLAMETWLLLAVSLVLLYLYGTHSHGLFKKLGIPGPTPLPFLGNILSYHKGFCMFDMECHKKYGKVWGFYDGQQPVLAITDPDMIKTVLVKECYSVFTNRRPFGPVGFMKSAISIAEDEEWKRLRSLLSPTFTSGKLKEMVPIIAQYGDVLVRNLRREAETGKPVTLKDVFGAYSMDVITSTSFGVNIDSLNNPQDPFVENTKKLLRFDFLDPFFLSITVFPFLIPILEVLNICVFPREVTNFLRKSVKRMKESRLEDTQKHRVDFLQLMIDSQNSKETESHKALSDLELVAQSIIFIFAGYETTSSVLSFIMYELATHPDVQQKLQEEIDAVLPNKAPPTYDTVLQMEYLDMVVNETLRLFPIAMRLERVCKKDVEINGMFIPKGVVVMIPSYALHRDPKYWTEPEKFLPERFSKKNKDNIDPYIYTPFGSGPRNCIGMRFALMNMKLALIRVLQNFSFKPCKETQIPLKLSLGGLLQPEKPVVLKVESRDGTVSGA
T1 sequence (Q9BXF3 434-538 limits assumed): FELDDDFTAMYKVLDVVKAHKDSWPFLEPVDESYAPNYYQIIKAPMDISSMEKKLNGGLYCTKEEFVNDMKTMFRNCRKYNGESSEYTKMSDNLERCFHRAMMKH
Sequence of JARID1A (h) (P29375 whole entry): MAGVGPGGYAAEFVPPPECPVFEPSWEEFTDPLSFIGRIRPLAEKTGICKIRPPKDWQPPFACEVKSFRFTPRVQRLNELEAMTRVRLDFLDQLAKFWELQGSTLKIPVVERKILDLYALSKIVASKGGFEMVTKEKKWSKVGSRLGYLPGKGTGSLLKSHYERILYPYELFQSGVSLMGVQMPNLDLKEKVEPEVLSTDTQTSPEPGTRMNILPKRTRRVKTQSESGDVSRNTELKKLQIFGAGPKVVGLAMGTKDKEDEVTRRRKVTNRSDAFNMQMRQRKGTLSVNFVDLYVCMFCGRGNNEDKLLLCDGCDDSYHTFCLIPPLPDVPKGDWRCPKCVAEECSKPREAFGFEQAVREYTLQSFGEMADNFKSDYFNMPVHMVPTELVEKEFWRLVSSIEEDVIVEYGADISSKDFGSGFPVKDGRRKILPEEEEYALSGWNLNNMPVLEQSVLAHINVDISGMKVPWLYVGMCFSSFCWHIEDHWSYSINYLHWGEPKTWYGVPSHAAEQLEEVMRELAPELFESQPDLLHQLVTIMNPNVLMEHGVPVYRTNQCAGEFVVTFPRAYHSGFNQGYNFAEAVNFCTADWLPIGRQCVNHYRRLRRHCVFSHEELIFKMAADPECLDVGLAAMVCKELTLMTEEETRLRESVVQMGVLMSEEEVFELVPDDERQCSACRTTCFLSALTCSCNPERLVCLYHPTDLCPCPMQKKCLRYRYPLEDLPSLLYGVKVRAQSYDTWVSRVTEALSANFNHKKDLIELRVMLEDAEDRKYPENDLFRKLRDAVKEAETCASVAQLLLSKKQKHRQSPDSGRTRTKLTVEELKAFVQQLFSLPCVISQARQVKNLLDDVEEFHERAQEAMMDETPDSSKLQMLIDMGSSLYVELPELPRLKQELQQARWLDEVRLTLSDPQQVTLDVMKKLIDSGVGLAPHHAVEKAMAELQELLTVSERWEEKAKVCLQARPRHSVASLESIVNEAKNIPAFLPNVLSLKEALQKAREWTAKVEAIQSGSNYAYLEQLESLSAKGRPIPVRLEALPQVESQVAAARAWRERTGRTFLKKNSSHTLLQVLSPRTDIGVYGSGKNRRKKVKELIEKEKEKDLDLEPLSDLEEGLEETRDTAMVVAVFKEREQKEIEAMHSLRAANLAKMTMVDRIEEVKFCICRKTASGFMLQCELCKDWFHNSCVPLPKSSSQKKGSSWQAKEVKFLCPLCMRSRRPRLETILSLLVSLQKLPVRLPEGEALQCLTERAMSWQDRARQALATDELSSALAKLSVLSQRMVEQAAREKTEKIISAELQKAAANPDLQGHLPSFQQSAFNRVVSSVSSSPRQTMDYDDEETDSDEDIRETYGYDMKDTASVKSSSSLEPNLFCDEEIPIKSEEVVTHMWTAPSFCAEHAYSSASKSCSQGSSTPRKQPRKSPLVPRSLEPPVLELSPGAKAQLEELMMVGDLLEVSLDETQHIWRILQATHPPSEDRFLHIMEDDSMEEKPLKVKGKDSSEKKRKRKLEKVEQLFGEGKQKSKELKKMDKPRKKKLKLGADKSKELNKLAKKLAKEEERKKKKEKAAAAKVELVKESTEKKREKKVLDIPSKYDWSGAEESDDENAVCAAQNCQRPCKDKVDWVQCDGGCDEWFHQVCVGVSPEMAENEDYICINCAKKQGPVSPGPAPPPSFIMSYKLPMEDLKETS
Sequence of HDAC5 (h) (Q9UQL6 whole entry): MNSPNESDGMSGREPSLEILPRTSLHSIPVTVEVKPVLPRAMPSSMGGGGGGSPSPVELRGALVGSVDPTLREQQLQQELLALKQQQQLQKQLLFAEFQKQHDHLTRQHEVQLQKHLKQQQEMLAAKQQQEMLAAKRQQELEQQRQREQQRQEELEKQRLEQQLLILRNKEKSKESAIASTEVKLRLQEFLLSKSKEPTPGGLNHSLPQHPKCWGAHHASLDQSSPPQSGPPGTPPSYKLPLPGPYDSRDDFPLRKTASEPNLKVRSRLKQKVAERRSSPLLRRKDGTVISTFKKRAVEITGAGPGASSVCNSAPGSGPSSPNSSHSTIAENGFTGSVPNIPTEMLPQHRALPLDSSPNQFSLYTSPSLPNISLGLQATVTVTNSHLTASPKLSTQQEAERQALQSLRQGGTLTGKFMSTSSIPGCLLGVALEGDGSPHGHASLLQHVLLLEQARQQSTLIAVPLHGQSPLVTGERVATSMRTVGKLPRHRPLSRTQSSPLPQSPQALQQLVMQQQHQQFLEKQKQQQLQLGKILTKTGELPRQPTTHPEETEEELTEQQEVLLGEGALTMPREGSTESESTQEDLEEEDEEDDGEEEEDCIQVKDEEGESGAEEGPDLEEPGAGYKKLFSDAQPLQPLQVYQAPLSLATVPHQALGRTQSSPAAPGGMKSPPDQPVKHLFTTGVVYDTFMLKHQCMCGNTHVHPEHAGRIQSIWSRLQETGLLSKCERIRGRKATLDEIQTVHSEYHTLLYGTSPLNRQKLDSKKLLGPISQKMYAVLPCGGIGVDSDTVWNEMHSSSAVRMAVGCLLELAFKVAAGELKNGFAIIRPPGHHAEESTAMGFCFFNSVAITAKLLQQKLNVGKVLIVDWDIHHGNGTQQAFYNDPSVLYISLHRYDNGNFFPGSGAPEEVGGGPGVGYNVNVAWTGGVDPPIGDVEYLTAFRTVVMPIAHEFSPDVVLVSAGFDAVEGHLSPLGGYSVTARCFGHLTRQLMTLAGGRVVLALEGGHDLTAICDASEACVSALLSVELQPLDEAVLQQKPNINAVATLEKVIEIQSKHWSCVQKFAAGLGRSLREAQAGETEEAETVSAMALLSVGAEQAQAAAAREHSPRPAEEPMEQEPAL
Sequence of USP 14 (h) (P54578 whole entry): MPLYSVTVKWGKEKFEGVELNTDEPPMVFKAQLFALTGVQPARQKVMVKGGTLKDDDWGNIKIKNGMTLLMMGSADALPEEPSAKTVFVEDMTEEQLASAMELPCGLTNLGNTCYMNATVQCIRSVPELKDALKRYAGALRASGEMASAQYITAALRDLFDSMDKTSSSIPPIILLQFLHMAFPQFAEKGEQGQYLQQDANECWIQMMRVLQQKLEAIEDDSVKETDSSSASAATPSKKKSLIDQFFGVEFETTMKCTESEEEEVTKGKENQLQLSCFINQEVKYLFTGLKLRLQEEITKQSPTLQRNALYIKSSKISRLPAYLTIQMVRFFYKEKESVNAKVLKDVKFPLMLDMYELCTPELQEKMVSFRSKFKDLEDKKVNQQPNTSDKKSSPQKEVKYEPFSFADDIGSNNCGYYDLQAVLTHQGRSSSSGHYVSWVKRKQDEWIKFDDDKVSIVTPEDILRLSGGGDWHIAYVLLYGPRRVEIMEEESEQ
Sequence of HDAC2 (h) (Q92769 whole entry): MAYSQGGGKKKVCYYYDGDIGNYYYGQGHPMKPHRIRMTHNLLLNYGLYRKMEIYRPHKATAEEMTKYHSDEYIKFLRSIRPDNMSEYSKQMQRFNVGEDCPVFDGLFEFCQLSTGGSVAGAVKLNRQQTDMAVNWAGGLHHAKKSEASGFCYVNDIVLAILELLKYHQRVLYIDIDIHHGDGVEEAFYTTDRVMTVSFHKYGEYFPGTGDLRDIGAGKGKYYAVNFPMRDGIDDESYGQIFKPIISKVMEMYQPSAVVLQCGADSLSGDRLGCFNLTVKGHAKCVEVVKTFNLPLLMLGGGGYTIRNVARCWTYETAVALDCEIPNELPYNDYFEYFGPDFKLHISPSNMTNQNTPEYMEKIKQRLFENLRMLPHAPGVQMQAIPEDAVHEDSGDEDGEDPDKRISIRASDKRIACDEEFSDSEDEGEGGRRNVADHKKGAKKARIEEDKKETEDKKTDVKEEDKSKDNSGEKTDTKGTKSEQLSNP

A word on the inhibition: it is the drop in the measured response relative to a control, in per cent. For orientation: EC50 means the concentration at which the effect is half-maximal. The GI50 is the concentration giving 50% growth inhibition. One may read the IC50 as the concentration that gives 50% inhibition. On to `CC(C)=CCC[C@@H]1C(O)Oc2c(C)cc(O)c3c2[C@H]1CC[C@H]3C` (stereo partly drawn) [Compound 2, 5,18-epoxyserrulat-14-en-8,18-diol], for which the inhibition at 10 µM at CECR2 (h) bromodomain was determined as 25%; on BAZ2B (h) bromodomain, 23%; on BRDT(1) (h) bromodomain, 23%; on CBX2 (h) chromodomain it was 6%; in the data set with H3K9 ac, 3%; in the data set with H3K9 me2, 11%. Also, the inhibition at 10 µM was -9% at JARID1A (h); 10% at JMJD2E (h); 27% on DNMT3B/DNMT3L (h); 0% on HDAC2 (h); -2% on HDAC5 (h); 20% on ASH1L. Further, the inhibition at 10 µM on SETD7 (h) amounted to 16%; in data set [1], 5%; at USP 14 (h) it was 0%; on CYP3A (liver microsomes, CYP3A (testosterone sub.), Human liver microsomes, 10 μM, read-out: % Inhibition of Control Values) it was 57%. Also, in the data set on L3MBTL1 MBT domain, the “% Inhibition of Control Specific Binding” value stood at 61%. In addition, the “% Control Response, Agonist” value in the data set on Angiotensin, AT1/ACE is 0%. Also, the “% Control Response, Antagonist” value with Angiotensin, AT1/ACE is given as 10%. The EC50 in the data set with Hs 852.T (read-out: Cell Count EC50) came out at 15.4 µM. The GI50 in the data set on Hs 852.T (read-out: Cell Count GI50) came to 14.7 µM. For the same compound, in the data set with Hs 852.T (read-out: Cell Count IC50), the 50% inhibitory concentration (IC50) came to 15.4 µM. The inhibition at 1 µM at CYP3A (read-out: % inhibition) was 7 to 20%; at CYP3A (CYP3A (testosterone sub.), Human liver microsomes, read-out: % Inhibition of Control Values) it was 17%.
